The source of these data is US20050209169A1, “Use of boswellic acid and its derivatives for inhibiting normal and increased leucocytic elastase or plasmin activity” (Hermann P.T. Ammon, priority 1995, published 2005).

The pIC50 is −log10 of the IC50, conventionally taken in molar units. As a reminder, the pKi is −log10 of the Ki, conventionally taken in molar units.

In test [1] the target is T1, human leucocytic elastase (Homo sapiens, UniProt P08246).
T1 construct: purchased Calbiochem
T1 sequence (P08246 30-267): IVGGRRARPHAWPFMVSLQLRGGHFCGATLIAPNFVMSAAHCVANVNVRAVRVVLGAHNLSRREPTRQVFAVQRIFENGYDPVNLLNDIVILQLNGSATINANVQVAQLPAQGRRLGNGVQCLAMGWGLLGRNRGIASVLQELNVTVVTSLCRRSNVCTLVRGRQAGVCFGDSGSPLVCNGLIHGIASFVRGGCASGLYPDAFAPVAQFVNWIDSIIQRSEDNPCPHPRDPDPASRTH
The test can be described thus: Human leucocytic elastase activity in vitro, photometric, MeO-Suc-Ala-Ala-Pro-Val-p-nitroanilide substrate. It is filed as biochemical. The conditions noted are these: for remaining activity at 20 µM: 20 μM test compound, percentage of 100% controls, read-out: residual activity of human leucocytic elastase; for inhibitory effect on human leucocytic elastase: concentration of 20 μM each in the test, reference substances. An excerpt:
The effects which differing concentrations of acetyl-11-keto-β-boswellic acid (AKBA) had on the human leucocytic elastase in these three series of measurement are shown as percentage of 100% controls as mean values±S.D. of three independent measurements each.

The target of the next test is chymotrypsin (Bos taurus, UniProt P00766). The test can be described thus: Chymotrypsin activity in vitro, photometric, MeO-Suc-Ala-Ala-Pro-Phe-p-nitroanilide substrate.
Another test addresses T2, human plasmin (Homo sapiens, UniProt P00747).
T2 construct: purchased SIGMA
The test can be described thus: Plasmin activity in vitro, photometric, substrate D-Ile-Phe-Lys-pNA. In kind it is biochemical. As to conditions: for pIC50: human plasmin in vitro, FIG. 2, read-out: half-maximum inhibition constants (IC50) of plasmin activity; for inhibition of plasmin activity, summary in words: in vitro test system, concentrations reachable in human blood after oral olibanum or frankincense extracts. On the procedure: The activity of human plasmin (SIGMA) was determined photometrically in vitro with the substrate D-Ile-Phe-Lys-pNA (Cs-Szabo et al., Thrombosis Res. 1980, 20: 199-206). The plasmin activity is referred to as the release of p-nitronaniline per minute (nmole/min) from the substrate as mean values±S.D. of n=3 measurements each.

For a further test, the target named is T3, human leucoytic elastase (Homo sapiens, UniProt P08246).
T3 sequence (P08246 30-267): T1 sequence (P08246 30-267)
The conditions noted are these: literature, Ying et al. 1991, Biochem. J. 277: 521-526; read-out: Ki values, inhibition of human leucocytic elastase; cited from earlier work.

pIC50, pKi: −log10 of the molar value.

T2 sequence (P00747 581-810 limits assumed): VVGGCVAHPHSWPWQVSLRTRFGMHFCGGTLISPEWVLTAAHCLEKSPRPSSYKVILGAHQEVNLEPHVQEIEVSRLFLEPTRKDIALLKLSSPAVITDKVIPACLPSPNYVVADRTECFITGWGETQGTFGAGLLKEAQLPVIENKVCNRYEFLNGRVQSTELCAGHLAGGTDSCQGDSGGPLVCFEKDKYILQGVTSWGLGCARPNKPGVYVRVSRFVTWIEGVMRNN
T2 sequence (P00747 97-580 partner limits assumed): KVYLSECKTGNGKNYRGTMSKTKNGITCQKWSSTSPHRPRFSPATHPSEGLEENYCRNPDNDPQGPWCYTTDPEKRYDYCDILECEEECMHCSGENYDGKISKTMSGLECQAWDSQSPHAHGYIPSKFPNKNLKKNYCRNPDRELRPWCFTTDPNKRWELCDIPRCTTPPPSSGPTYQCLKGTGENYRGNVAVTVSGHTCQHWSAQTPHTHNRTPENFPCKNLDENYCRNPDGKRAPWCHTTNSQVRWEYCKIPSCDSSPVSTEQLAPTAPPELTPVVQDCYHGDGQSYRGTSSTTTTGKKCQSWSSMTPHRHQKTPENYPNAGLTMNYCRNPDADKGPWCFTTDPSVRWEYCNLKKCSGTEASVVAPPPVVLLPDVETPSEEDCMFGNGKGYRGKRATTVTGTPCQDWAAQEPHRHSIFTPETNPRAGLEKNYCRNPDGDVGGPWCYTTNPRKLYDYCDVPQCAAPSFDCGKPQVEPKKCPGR

For `CC(=O)OC1CCC2(C)C(CCC3(C)C2C(=O)C=C2C4C(C)C(C)CCC4(C)CCC23C)C1(C)C(=O)O` (stereo not drawn) [AKBA, acetyl-11-keto-β-boswellic acid], in test [1], the remaining activity at 20 µM is 18%. Besides, the pIC50 in test [1] (substrate concentrations of 50, 100 and 150 μM, 10% DMSO, room temperature, read-out: IC50 values, inhibition of human leucocytic elastase) was about 4.77; on human plasmin it was 5.22 to 5.40. For the same compound, the “chymotrypsin activity, of the control activity” value (shortened to “chymotrypsin activity”) is given as 89% at chymotrypsin (50 μM test compound) and 85% at chymotrypsin (100 μM test compound). Besides, the “inhibition of plasmin activity, summary in words” value (“inhibition of plasmin activity” for short) on human plasmin is on record as “inhibited almost completely”.

In the case of `CC(Cc1ccc(O)c(O)c1)C(C)Cc1ccc(O)c(O)c1` (stereo not drawn) [NDGA], the “inhibitory effect on human leucocytic elastase” value (“inhibitory effect” below) in test [1] was “no inhibitory effect”.

Regarding `CC1(C)[C@@H](O)CC[C@]2(C)[C@H]3C(=O)C=C4[C@@H]5C[C@@](C)(C(=O)O)CC[C@]5(C)CC[C@@]4(C)[C@]3(C)CC[C@@H]12` [glycerrhitinic acid], the “inhibitory effect” value in test [1] is listed as “no inhibitory effect”.

With `CCCCC/C=C\C/C=C\C/C=C\C/C=C\CCCC(=O)O` [arachidonic acid], the “inhibitory effect” value in test [1] is listed as “no inhibitory effect”.

With `C[C@]12CCC(=O)C=C1CC[C@@H]1[C@@H]2[C@@H](O)C[C@@]2(C)[C@H]1CC[C@]2(O)C(=O)CO` [cortisol], the “inhibitory effect” value in test [1] was “no inhibitory effect”.

In the case of `C[C@]12CC[C@H]3[C@@H](CCC4=CC(=O)CC[C@@]43C)[C@@H]1CC[C@@H]2O` [testosterone], the “inhibitory effect” value in test [1] is given as “no inhibitory effect”.

For the compound amyrin, at human plasmin (concentrations up to 50 μM (not shown)), the “influence on plasmin activity” value is recorded as “does not influence significantly”. Moreover, on human plasmin, the “inhibition of plasmin activity” value is given as “not effective at all”.

Regarding `C[C@H]1[C@H](C)CC[C@]2(C(=O)O)CC[C@]3(C)C(=CC[C@@H]4[C@@]5(C)CC[C@H](O)C(C)(C)[C@@H]5CC[C@]43C)[C@H]12` [ursolic acid], the pKi at human leucoytic elastase is 5.22 to 5.40. For the same compound, the remaining activity at 20 µM in test [1] is 11%. In addition, at chymotrypsin (50 μM test compound), the “chymotrypsin activity” value is 56%. Besides, the “chymotrypsin activity” value on chymotrypsin (100 μM test compound) came out at 30%. At human plasmin, the pIC50 is about 4.82 and the “inhibition of plasmin activity” value is listed as “substantially weaker”.

For `CC(C)c1ccc2c(c1)c(SC(C)(C)C)c(CC(C)(C)C(=O)O)n2Cc1ccc(Cl)cc1` [MK886], in test [1], the “inhibitory effect” value was “no inhibitory effect”.

Consider `C[C@H]1[C@H](C)CC[C@]2(C)CC[C@]3(C)C(=CC[C@@H]4[C@@]5(C)CC[C@@H](O)[C@](C)(C(=O)O)[C@@H]5CC[C@]43C)[C@H]12` [β-BA, β-boswellic acid], for which the “inhibition of plasmin activity” value on human plasmin was “inhibited almost completely”.
